Assay results: paper PMC7031696 (Cell chemical biology, 2019)

Test system: 3D7-MR4 trophozoite parasite-infected RBCs
Assay: Metabolomic profiling (hydrophilic metabolite changes, UHPLC-MS)
Format: cell-based, Plasmodium falciparum

CN(C)Cc1ccc(-c2cc3c(-c4ccc(CN(C)C)cc4)ccnc3[nH]2)cc1.O=C(O)C(F)(F)F [MMV022224]
Log2(fold changes) adenosine (metabolite adenosine, log2 fold change): 0.0000 | Log2(fold changes) alanine/sarcosine (metabolite alanine/sarcosine, log2 fold change): 0.0223 | Log2(fold changes) anthranilate (metabolite anthranilate, log2 fold change): 0.0000 | Log2(fold changes) arginine (metabolite arginine, log2 fold change): 0.0000 | Log2(fold changes) asparagine (metabolite asparagine, log2 fold change): 0.2620 | Log2(fold changes) aspartate (metabolite aspartate, log2 fold change): -0.0524 | Log2(fold changes) biotin (metabolite biotin, log2 fold change): 0.0000 | Log2(fold changes) cCMP (metabolite cCMP, log2 fold change): 0.0000 | Log2(fold changes) cGMP (metabolite cGMP, log2 fold change): 0.0000 | Log2(fold changes) carnitine (metabolite carnitine, log2 fold change): 0.0000 | Log2(fold changes) citrate/isocitrate (metabolite citrate/isocitrate, log2 fold change): -0.2505 | Log2(fold change) of coenzyme A (metabolite coenzyme A): -0.6694 | Log2(fold change) of cyclic-AMP (metabolite cyclic-AMP): 0.0000 | Log2(fold change) of cytidine (metabolite cytidine): 0.1493 | Log2(fold change) of dAMP (metabolite dAMP): 0.0000 | Log2(fold change) of dATP (metabolite dATP): -0.1042 | Log2(fold change) of dCDP (metabolite dCDP): -0.6243 | Log2(fold change) of dCMP (metabolite dCMP): -0.5224 | Log2(fold change) of dCTP (metabolite dCTP): -0.4073 | Log2(fold change) of dGDP/ADP (metabolite dGDP/ADP): -0.4184 | Log2(fold change) of dGMP/AMP (metabolite dGMP/AMP): -0.2434 | Log2(fold change) of dGTP/ATP (metabolite dGTP/ATP): -0.1490 | Log2(fold change) of dTDP (metabolite dTDP): 0.0000 | Log2(fold change) of dTMP (metabolite dTMP): -0.1539 | Log2(fold change) of dTTP (metabolite dTTP): -0.2628 | Log2(fold change) of dUMP (metabolite dUMP): 0.0000 | Log2(fold change) of dUTP (metabolite dUTP): 0.0000 | Log2(fold change) of deoxyguanosine (metabolite deoxyguanosine): 0.0000 | Log2(fold change) of deoxyinosine (metabolite deoxyinosine): 0.0000 | Log2(fold change) of deoxyribose-phosphate (metabolite deoxyribose-phosphate): 0.0000 | Log2(fold change) of deoxyuridine (metabolite deoxyuridine): 0.0000 | Log2(fold change) of dihydroorotate (metabolite dihydroorotate): 0.4231 | Log2(fold change) of folate (metabolite folate): 0.2103 | Log2(fold change) of fructose-1-6-bisphosphate (metabolite fructose-1-6-bisphosphate): -0.0559 | Log2(fold change) of fructose-6-phosphate (metabolite fructose-6-phosphate): 0.0000 | Log2(fold change) of fumarate (metabolite fumarate): -0.4743 | Log2(fold change) of glucono-lactone (metabolite glucono-lactone): 0.0000 | Log2(fold change) of glucose-1/6-phosphate (metabolite glucose-1/6-phosphate): 0.0000 | Log2(fold change) of glutamate (metabolite glutamate): -0.2593 | Log2(fold change) of glutamine (metabolite glutamine): 0.1154 | Log2(fold change) of glutathione (metabolite glutathione): -0.5102 | Log2(fold change) glutathione disulfide (metabolite glutathione disulfide): -0.1758 | Log2(fold change) glycerate (metabolite glycerate): 0.0000 | Log2(fold change) guanine (metabolite guanine): -0.4489 | Log2(fold change) guanosine (metabolite guanosine): 0.0000 | Log2(fold change) histidine (metabolite histidine): 0.2818 | Log2(fold change) homocysteic acid (metabolite homocysteic acid): 0.0000 | Log2(fold change) hydroxyphenylpyruvate (metabolite hydroxyphenylpyruvate): 0.0000 | Log2(fold change) hydroxyproline/Aminolevulinate (metabolite hydroxyproline/Aminolevulinate): -0.0239 | Log2(fold change) hypoxanthine (metabolite hypoxanthine): 0.0610 | Log2(fold change) indole (metabolite indole): 0.8345 | Log2(fold change) inosine (metabolite inosine): -0.1646 | Log2(fold change) isoleucine (metabolite isoleucine): -0.1407 | Log2(fold change) lactate (metabolite lactate): -0.4343 | Log2(fold change) leucine (metabolite leucine): 0.0081 | Log2(fold change) lysine (metabolite lysine): 0.0000 | Log2(fold change) malate (metabolite malate): -0.4038 | Log2(fold change) maleic acid (metabolite maleic acid): -0.3811 | Log2(fold change) methionine (metabolite methionine): 0.2971 | Log2(fold change) myo-inositol (metabolite myo-inositol): 0.0000 | Log2(fold change) nicotinamide mononucleotide (metabolite nicotinamide mononucleotide): 0.0000 | Log2(fold change) nicotinate (metabolite nicotinate): -0.4667 | Log2(fold change) ornithine (metabolite ornithine): 0.0000 | Log2(fold change) orotate (metabolite orotate): -0.1913 | Log2(fold change) orotidine-5'-phosphate (metabolite orotidine-5'-phosphate): -0.1124 | Log2(fold change) oxaloacetate (metabolite oxaloacetate): 0.0000 | Log2(fold change) p-aminobenzoate (metabolite p-aminobenzoate): 0.0000 | Log2(fold change) p-hydroxybenzoate (metabolite p-hydroxybenzoate): 0.0000 | Log2(fold change) pantothenate (metabolite pantothenate): -0.1562 | Log2(fold change) phenylalanine (metabolite phenylalanine): -0.0454 | Log2(fold change) phenylpyruvate (metabolite phenylpyruvate): 0.0000 | Log2(fold change) phosphoenolpyruvate (metabolite phosphoenolpyruvate): -0.1663 | Log2(fold change) prephenate (metabolite prephenate): 0.0000 | Log2(fold change) proline (metabolite proline): -0.1446 | Log2(fold change) pyridoxine (metabolite pyridoxine): 0.0000 | Log2(fold change) pyruvate (metabolite pyruvate): -0.5314 | Log2(fold change) riboflavin (metabolite riboflavin): 0.4707 | Log2(fold change) ribose (metabolite ribose): 0.0000 | Log2(fold change) ribose-phosphate (metabolite ribose-phosphate): 0.0000 | Log2(fold change) ribulose-5-phosphate (metabolite ribulose-5-phosphate): -0.0752 | Log2(fold change) serine (metabolite serine): 0.2570 | Log2(fold change) sn-glycerol-3-phosphate (metabolite sn-glycerol-3-phosphate): 0.2730 | Log2(fold change) succinate/Methylmalonic acid (metabolite succinate/Methylmalonic acid): -0.4610 | Log2(fold change) succinyl-CoA/methylmalonyl-CoA (metabolite succinyl-CoA/methylmalonyl-CoA): -0.1003 | Log2(fold change) taurine (metabolite taurine): 0.0000 | Log2(fold change) thiamine (metabolite thiamine): 0.0000 | Log2(fold change) threonine/homoserine (metabolite threonine/homoserine): 0.2231 | Log2(fold change) thymidine (metabolite thymidine): 0.0000 | Log2(fold changes) thymine (metabolite thymine, log2 fold change): 0.0000 | Log2(fold changes) trehalose-6-Phosphate (metabolite trehalose-6-Phosphate, log2 fold change): 0.0000 | Log2(fold changes) tryptophan (metabolite tryptophan, log2 fold change): 0.5432 | Log2(fold changes) tyrosine (metabolite tyrosine, log2 fold change): 0.1420 | Log2(fold changes) uridine (metabolite uridine, log2 fold change): 0.0000 | Log2(fold changes) valine (metabolite valine, log2 fold change): -0.1357 | Log2(fold changes) xanthine (metabolite xanthine, log2 fold change): 0.0000 | Log2(fold changes) xanthosine-5-phosphate (metabolite xanthosine-5-phosphate, log2 fold change): -0.1792 | Log2(fold changes) xanthosine (metabolite xanthosine, log2 fold change): -1.8994 | Log2(fold changes) xylose (metabolite xylose, log2 fold change): 0.0000
